Drawing on patent publication US20060004029A1, “Nitrogen-containing aromatic derivatives” (priority 2003, published 2006), this text covers IC50 for 5 compounds.

For the assay, the target named is T1, FGFR1 (Homo sapiens, UniProt P11362).
T1 construct: made in house; host or cells: Sf9 insect cells, baculovirus (pFastBacHis), by the same method as VEGFR2
The experiment in a line: Inhibition against receptor tyrosine kinase activity (HTRF), FGFR1. Format: biochemical. Particulars: His6-FGFR1 cytoplasmic domain, biotin-poly(GT), HTRF; read-out: FGFR1 kinase IC50. The source says:
This assay is used to determine inhibition of a test substance on tyrosine kinase activity. DNA coding for the cytoplasmic domain of VEGFR2 is obtained by total cDNA synthesis (Edwards M, International Biotechnology Lab 5(3), 19-25, 1987) or by cloning. Expression in an appropriate expression system can produce a polypeptide with tyrosine kinase activity. […] For VEGFR2 (GenBank Accession No. L04947), the 1.7 kb DNA fragment described by Terman et al. (Oncogene, 6(9), 1677-1683, 1991), coding for the cytoplasmic domain, beginning with lysine 791 and including the termination codon, was isolated from a human placental cDNA library (purchased from Clontech Laboratories, Inc.) and cloned in a Baculovirus expression vector (pFastBacHis, purchased from GIBCO BRL). The recombinant construct was transfected into insect cells (Spondoptea frugiperda9 (Sf9)) to prepare a recombinant Baculovirus. (Instructions for preparation and use of recombinant Baculovirus may be found in standard texts, such as “Bac-To-Bac Baculovirus Expression System” (GIBCO BRL).) The cytoplasmic fragment starting from lysine 398 (FGFR1, GenBank Accession No. X52833), the cytoplasmic fragment starting from lysine 558 (PDGFRβ, GenBank Accession No. M21616) or the cytoplasmic fragment starting from lysine 974 (HGFR, GenBank Accession No. J02958) may be cloned and expressed by the same method for use in assays for other tyrosine kinases. EGFR was purchased from Sigma Co. (Product No. E-2645).
For expression of the VEGFR2 tyrosine kinase, Sf9 cells were infected with the VEGFR2 recombinant virus and collected after 48 hours. The collected cells were rinsed with ice-cooled phosphate buffered saline (PBS) and then resuspended using 20 ml of ice-cooled Lysis Buffer (50 mM Tris-HCl (pH 8.5), 5 mM 2-mercaptoethanol, 100 mM KCl, 1 mM phenylmethylsulfonyl fluoride, 1% (v/v) NP-40) per 1.5×10^8 cells. The suspension was centrifuged at 12,000 rpm for 30 minutes at 4° C. and the supernatant was obtained. The supernatant was added to a Ni-NTA agarose column (3 ml, purchased from Qiagen) equilibrated with Buffer A {20 mM Tris-HCl (pH 8.5), 5 mM 2-mercaptoethanol, 500 mM KCl, 20 mM imidazole, 10% (v/v) glycerol}. The column was washed with 30 ml of Buffer A, and then with 6 ml of Buffer B {20 mM Tris-HCl (pH 8.5), 5 mM 2-mercaptoethanol, 1M KCl, 10% (v/v) glycerol}, and finally with 6 ml of Buffer A. After washing, it was eluted with 6 ml of Buffer C {20 mM Tris-HCl (pH 8.5), 5 mM 2-mercaptoethanol, 100 mM KCl, 100 mM imidazole, 10% (v/v) glycerol}. The eluate was placed on a dialysis membrane (purchased from Spectrum Laboratories) and dialyzed with a dialysis buffer {20 mM Tris-HCl (pH 7.5), 10% (v/v) glycerol, 1 mM dithiothreitol, 0.1 mM Na3VO4, 0.1 mM EGTA}. After dialysis, it was supplied for SDS-electrophoresis, and the recombinant protein (His6-VEGFR2, cytoplasmic domain of VEGFR2 fused with 6 histidine residues at the N-terminus) detected at a molecular weight of approximately 100 kDa with Coumassie Brilliant Blue staining was assayed using BSA (bovine serum albumin, purchased from Sigma Co.) as the standard substance, and stored at −80° C. until use. Using the same method for the cytoplasmic domains of FGFR1, PDGFRβ and HGFR yielded respective recombinant proteins fused with 6 histidine residues at the N-terminal (His6-FGFR1, His6-PDGFRβ or His6-HGFR).
The tyrosine kinase reaction was conducted as follows. In the case of VEGFR2, for example, 10 μl of a kinase reaction solution {200 mM Hepes (pH 7.4), 80 mM MgCl2, 16 mM MnCl2, 2 mM Na3VO4}, 250 ng of biotin-bound poly(Glu4:Tyr1) (biotin-poly(GT), purchased from CIS Diagnostics Co.) (6 μl of a 15-fold dilution with distilled water), 15 ng of His6-VEGFR2 (10 μl of a 240-fold dilution with 0.4% BSA solution) and the test substance dissolved in dimethyl sulfoxide (4 μl of a 100-fold dilution with 0.1% BSA solution) were added into each well of a 96-well round-bottom plate (NUNC Co., Product No. 163320), to a total of 30 μl. […]

Structures are written as SMILES.

T1 sequence (P11362 398-822 limits assumed): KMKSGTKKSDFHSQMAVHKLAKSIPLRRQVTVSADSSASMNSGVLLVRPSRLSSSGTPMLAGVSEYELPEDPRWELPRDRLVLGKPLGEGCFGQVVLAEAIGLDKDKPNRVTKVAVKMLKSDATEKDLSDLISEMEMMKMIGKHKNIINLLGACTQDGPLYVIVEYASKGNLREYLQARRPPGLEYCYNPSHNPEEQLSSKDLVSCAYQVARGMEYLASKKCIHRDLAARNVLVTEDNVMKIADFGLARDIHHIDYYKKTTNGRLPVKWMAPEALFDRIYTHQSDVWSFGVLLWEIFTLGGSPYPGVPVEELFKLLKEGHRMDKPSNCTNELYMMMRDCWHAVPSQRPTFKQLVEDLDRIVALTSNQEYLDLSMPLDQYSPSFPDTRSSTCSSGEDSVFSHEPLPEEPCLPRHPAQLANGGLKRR

By IC50 is commonly meant the concentration that inhibits the measured activity by half. For the compound `CNC(=O)n1ccc2cc(Oc3ccnc(NC(=O)N4CCC(O)CC4)c3)ccc21` [Example 39, N1-Methyl-5-(2-((4-hydroxypiperidino)carbonyl)amino-4-pyridyl)oxy-1H-1-indolecarboxamide], the IC50 was determined as 6.3 nM.

`CNC(=O)n1ccc2cc(Oc3ccnc(NC(=O)N4CCC(C)(O)CC4)c3)ccc21` [Example 41, 5-(2-(((4-Hydroxy-4-methylpiperidin-1-yl)carbonyl)amino)pyridin-4-yloxy)-1H-1-indole-1-carboxylic acid methylamide]: the IC50 is 3.2 nM.

Regarding `CNC(=O)n1ccc2cc(Oc3ccnc(NC(=O)N4CCC(N5CCCC5)CC4)c3)ccc21` [Example 46, N1-Methyl-5-(2-(((4-(pyrrolidin-1-yl)piperidin-1-yl)carbonyl)amino)pyridin-4-yloxy)-1H-1-indolecarboxamide], the IC50 came out at 12 nM.

Consider `CNC(=O)n1ccc2cc(Oc3ccnc(NC(=O)N4CCC(N5CCCCC5)CC4)c3)ccc21` [Example 47, N1-Methyl-5-(2-(((4-(piperidin-1-yl)piperidin-1-yl)carbonyl)amino)pyridin-4-yloxy)-1H-1-indolecarboxamide], for which the IC50 turned out to be 21 nM.

For the compound `CNC(=O)n1ccc2cc(Oc3ccnc(NC(=O)N4CCOCC4)c3)ccc21` [Example 53, N4-(4-(1-(Methylamino)carbonyl-1H-5-indolyl)oxy-2-pyridyl)-4-morpholinecarboxamide], the IC50 is 2.1 nM.
